Data from ChEMBL document CHEMBL1122012, “Adenosine receptors: targets for future drugs” (J Med Chem, 1982).
Activity calls are given as the source filed them. The calls are words filed in the database; no cut-off is given here.

What was measured:
Adenosine receptor A2a [1] = target: T1, Adenosine receptor A2a (Cavia porcellus, UniProt P46616); assay: biochemical
Description: (§1) Antagonist binding of N6-cyclohexyl-[3H]-adenosine to guinea pig brain

[2] = target: T2, Adenosine A2 receptor (Homo sapiens) (UniProt P29275+P29274); conditions: brain
[3] = target: T3, Adenosine receptor (Homo sapiens) (UniProt P30542+P29275+P0DMS8+P29274)
T3 sequence (P0DMS8 whole entry, looked up, one chain of several): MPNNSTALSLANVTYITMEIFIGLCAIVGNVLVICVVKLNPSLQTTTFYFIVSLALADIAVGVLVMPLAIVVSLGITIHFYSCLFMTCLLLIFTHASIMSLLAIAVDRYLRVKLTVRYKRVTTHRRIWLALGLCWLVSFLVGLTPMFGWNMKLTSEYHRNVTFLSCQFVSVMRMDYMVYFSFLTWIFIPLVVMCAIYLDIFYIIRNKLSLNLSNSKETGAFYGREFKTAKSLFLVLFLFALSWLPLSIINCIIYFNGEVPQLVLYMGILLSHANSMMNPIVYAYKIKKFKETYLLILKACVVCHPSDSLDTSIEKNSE
T3 sequence (P29274 whole entry, looked up, one chain of several): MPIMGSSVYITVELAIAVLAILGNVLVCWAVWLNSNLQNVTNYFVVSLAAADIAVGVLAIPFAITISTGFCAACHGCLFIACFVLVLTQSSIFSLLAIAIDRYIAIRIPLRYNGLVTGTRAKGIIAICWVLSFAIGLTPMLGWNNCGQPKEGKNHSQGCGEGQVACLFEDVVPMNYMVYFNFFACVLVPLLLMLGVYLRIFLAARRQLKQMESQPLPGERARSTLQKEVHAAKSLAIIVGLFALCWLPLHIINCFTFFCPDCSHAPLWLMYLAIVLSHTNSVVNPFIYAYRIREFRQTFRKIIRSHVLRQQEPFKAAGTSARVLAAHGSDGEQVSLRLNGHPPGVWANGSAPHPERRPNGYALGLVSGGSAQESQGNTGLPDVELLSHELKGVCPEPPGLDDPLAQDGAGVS
T3 sequence (P29275 whole entry, looked up, one chain of several): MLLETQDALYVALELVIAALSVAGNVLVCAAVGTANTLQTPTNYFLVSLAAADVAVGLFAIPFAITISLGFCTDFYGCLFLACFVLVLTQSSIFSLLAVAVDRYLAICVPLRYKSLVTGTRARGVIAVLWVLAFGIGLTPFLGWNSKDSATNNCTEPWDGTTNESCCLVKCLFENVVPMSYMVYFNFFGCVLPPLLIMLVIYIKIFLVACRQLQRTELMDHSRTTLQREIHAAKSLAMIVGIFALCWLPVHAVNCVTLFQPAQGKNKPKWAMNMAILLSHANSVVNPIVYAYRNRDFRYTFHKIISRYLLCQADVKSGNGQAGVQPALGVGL

Adenosine receptor A1 = target: T4, Adenosine receptor A1 (Bos taurus, UniProt P28190)
T4 sequence (P28190 whole entry): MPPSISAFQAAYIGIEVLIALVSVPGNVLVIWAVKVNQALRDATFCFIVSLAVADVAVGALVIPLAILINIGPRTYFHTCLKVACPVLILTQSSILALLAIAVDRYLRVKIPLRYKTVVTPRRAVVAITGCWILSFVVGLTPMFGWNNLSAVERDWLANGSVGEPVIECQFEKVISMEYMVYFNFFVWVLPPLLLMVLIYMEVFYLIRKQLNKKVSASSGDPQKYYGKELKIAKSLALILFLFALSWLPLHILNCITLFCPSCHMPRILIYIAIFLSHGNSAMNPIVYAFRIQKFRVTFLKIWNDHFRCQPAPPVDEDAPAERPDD

[4] = target: T5, Adenosine receptor A1 (Homo sapiens) (UniProt P30542); conditions: brain
T5 sequence (whole entry): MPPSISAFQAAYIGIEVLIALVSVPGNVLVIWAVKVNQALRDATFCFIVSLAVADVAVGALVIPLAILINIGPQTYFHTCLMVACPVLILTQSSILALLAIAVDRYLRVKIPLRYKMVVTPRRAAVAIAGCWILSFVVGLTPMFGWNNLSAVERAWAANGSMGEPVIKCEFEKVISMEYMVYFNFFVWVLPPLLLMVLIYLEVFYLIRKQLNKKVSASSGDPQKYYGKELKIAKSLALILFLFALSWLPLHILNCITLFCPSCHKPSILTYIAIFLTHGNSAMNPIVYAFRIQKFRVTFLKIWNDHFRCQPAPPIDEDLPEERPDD

[5] = target: T3, Adenosine receptor (Homo sapiens); remark: listed apart in the source
[6] = target: T2, Adenosine A2 receptor (Homo sapiens); conditions: brain; remark: listed apart in the source
[7] = target: T5, Adenosine receptor A1 (Homo sapiens); assay: Affinity constant for inhibition of A1 receptor control of adenylate cyclase in adipocytes, heart and brain cells; Inactive; assay type: functional, cell-based
[8] = target: T2, Adenosine A2 receptor (Homo sapiens); assay: Affinity constant for A2 receptor control of adenylate cyclase in adipocytes, heart and brain cells; Inactive; assay type: functional, cell-based
Adenosine receptor A2a [9] = target: T1, Adenosine receptor A2a; assay: biochemical; remark: listed apart in the source
Description: as §1

Adenosine receptor [10] = target: T6, Adenosine receptor (Rattus norvegicus, UniProt P29276+P25099+P30543+P28647); assay: Antagonist binding of rN6-cyclohexyl-[3H]adenosine to rat brain; assay type: functional
Adenosine receptor [11] = target: T6, Adenosine receptor; assay type: functional
Adenosine receptor [12] = target: T6, Adenosine receptor
Description: Antagonist binding of L-N6-phenyl-isopropyl)-[3H]adenosine to rat fat

T1 sequence (P46616 whole entry): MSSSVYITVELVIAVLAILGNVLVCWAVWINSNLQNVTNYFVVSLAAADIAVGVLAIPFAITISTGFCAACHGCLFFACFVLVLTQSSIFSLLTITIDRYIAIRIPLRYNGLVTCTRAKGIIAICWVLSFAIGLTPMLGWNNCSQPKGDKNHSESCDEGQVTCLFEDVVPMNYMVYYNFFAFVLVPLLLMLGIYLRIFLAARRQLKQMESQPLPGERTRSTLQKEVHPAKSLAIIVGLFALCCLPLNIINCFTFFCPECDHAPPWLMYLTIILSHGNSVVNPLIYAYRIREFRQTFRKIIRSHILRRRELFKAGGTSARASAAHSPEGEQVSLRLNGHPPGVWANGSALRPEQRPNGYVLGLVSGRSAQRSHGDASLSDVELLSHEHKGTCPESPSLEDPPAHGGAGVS

`Nc1ncnc2c1ncn2[C@@H]1O[C@H](C(=O)NC2CC2)[C@@H](O)[C@H]1O` showed a Ki (Adenosine receptor A2a [1]) of 0.008 µM.
With `Nc1nc(Cl)nc2c1ncn2[C@@H]1O[C@H](CO)[C@@H](O)[C@H]1O` the Affinity constant [2] was 5 µM, the Affinity constant [3] was “inactive” and the Ki (Adenosine receptor A1) was 0.025 µM. It also gave a Ki (Adenosine receptor A2a [1]) of 0.008 µM and an Affinity constant [4] of 0.01 µM.
In the case of `OC[C@H]1O[C@@H](n2cnc3c(NC4CCCCC4)ncnc32)[C@H](O)[C@@H]1O`, the Affinity constant [5] is reported as “inactive”, the Affinity constant [6] is reported as 30 µM and the Ki (Adenosine receptor A1) is reported as 0.0025 µM. For the same molecule, the Affinity constant [4] was 0.003 µM.
For `CCNC(=O)[C@H]1O[C@@H](n2cnc3c(N)ncnc32)[C@H](O)[C@@H]1O`, the Affinity constant [4] was 0.1 µM.
`CNc1ncnc2c1ncn2[C@@H]1O[C@H](CO)[C@@H](O)[C@H]1O` showed an Affinity constant [6] of 80 µM and an Affinity constant [4] of 0.1 µM.
In the case of `CSC[C@H]1O[C@@H](n2cnc3c(N)ncnc32)[C@H](O)[C@@H]1O`, the Affinity constant [6] is reported as 10 µM.
With `C[C@@H]1O[C@H](n2cnc3c(N)ncnc32)C[C@H]1O` the Affinity constant [5] was 2 µM, the Affinity constant [7] was “inactive” and the Affinity constant [8] was “inactive”.
With `OC[C@H]1O[C@@H](n2cnc3c(NCc4ccccc4)ncnc32)[C@H](O)[C@@H]1O` the Affinity constant [5] was “inactive”, the Affinity constant [6] was 80 µM and the Affinity constant [4] was 0.2 µM.
With `OC[C@H]1O[C@@H](n2cnc3c(Nc4ccccc4)ncnc32)[C@H](O)[C@@H]1O` the Affinity constant [5] was “inactive”, the Affinity constant [6] was 50 µM and the Affinity constant [4] was 0.003 µM.
In the case of `Cn1c(=O)c2[nH]c(-c3ccccc3)nc2n(C)c1=O` [8-PHENYL THEOPHYLLINE], the Ki (Adenosine receptor A2a [1]) is reported as 0.4 µM.
`C[C@H](Cc1ccccc1)Nc1ncnc2c1ncn2[C@@H]1O[C@H](CO)[C@@H](O)[C@H]1O` [(R)-PIA] was tested, and the Affinity constant [5] was “inactive”, the Affinity constant [6] was 30 µM and the Ki (Adenosine receptor A1) was 0.00025 µM. The Ki (Adenosine receptor A2a [9]) was 0.0033 µM and the Affinity constant [4] was 0.003 µM.
With `C[C@@H](Cc1ccccc1)Nc1ncnc2c1ncn2[C@@H]1O[C@H](CO)[C@@H](O)[C@H]1O` [(S)-PIA] the Affinity constant [5] was “inactive”, the Affinity constant [6] was 100 µM and the Ki (Adenosine receptor A1) was 0.008 µM. It also gave a Ki (Adenosine receptor A2a [1]) of 0.13 µM and an Affinity constant [4] of 0.2 µM.
With `Cn1c(=O)c2c(ncn2C)n(C)c1=O` [CAFFEINE] the Affinity constant [5] was “inactive”, the Affinity constant [6] was 30 µM and the Ki (Adenosine receptor A1) was 130 µM. For the same molecule, the Affinity constant [4] was 30 µM.
For `CC(C)Cn1c(=O)n(C)c(=O)c2[nH]cnc21` [ISOBUTYLMETHYLXANTHINE], the Ki (Adenosine receptor A1) was 7 µM and the Ki (Adenosine receptor A2a [1]) was 8 µM.
In the case of `CC(C)Cn1c(=O)n(C)c(=O)c2nc[nH]c21` [ISOBUTYLMETHYLXANTHINE], the Affinity constant [5] is reported as “inactive”, the Affinity constant [6] is reported as 5 µM and the Ki (Adenosine receptor [10]) is reported as 3 µM. For the same molecule, the Ki (Adenosine receptor [11]) was 0.8 µM, the Ki (Adenosine receptor [12]) was 20 µM and the Affinity constant [4] was 2 µM.
